Tested on: F-α-DG (functionally glycosylated α-DG)
Assay: Western blot (IIH6C4) quantification and laminin overlay assay of muscle lysates from ribitol-treated P448L mice
Assay type: in vivo, mouse
Settings: for F-α-DG by IIH6C4 western blot, % of normal (C57) levels: 6 months (FIG. 3c)
Method: Ribitol was purchased from Sigma (A5502 Adonitol, ≥98%, Sigma, St. Louis) and dissolved in drinking water to the final concentration of 5% or 10%. […] mice aged at 4 weeks were treated with 5% ribitol drinking water for 1 month and […] mice aged at 7 weeks were treated with 5% ribitol drinking water for 3 months and 6 months. All the mice were randomly assigned to either treatment or control groups. And a minimum number of 4 mice were used for each group. No animal was excluded. […] female breeders were given 10% ribitol in drinking water during pregnancy, and pups continued to be treated with 10% ribitol in drinking water until they were euthanized at 19 weeks of age. Untreated age-matched […] and wild-type C57BL/6 mice were used as controls. The animals were terminated at the end of each treatment time point and tissues including heart, diaphragm, TA, quadriceps, liver, spleen and kidney were collected for analyses. For western blot analysis, tissues were homogenized in extraction buffer (50 mM Tris-HCl pH 8.0, 150 mM NaCl, and 1% Triton X-100), supplemented with 1× protease inhibitor cocktail (Sigma-Aldrich). Protein concentration was quantified by Bradford assay (Bio-Rad DC protein assay). Eighty μg of protein was loaded on a 4-15% Bio-Rad Mini-PROTEAN TGX gel (Bio-Rad) and immunoblotted. Amount of total protein loaded for C57 mice was half of the amount loaded for the […] mice. Nitrocellulose membranes (Bio-Rad) were blocked with 5% milk in 1×PBS for 2 hr at room temperature and then incubated with the following primary antibodies overnight at 4° C.: IIH6C4 (1:2000), AF6868 (R&D Systems) (1:1000) and α-actin (Sigma) (1:1000). Appropriate horseradish peroxidase (HRP)-conjugated secondary antibodies were incubated for 2 hr at room temperature. All blots were developed by electrochemiluminescence immunodetection (PerkinElmer). For IIH6C4 band quantification from western blot ImageJ software was used. For laminin overlay assay, nitrocellulose membranes were blocked with laminin overlay buffer (10 mM ethanolamine, 140 mM NaCl, 1 mM MgCl2, and 1 mM CaCl2, pH 7.4) containing 5% nonfat dry milk for 1 hr at 4° C. followed by incubation with laminin from Engelbreth-Holm-Swarm murine sarcoma basement membrane (L2020) (Sigma) at a concentration of 2 μg/ml overnight at 4° C. in laminin overlay buffer. Membranes were then incubated with rabbit anti-laminin antibody (Sigma) (1:1500) followed by goat anti-rabbit HRP-conjugated IgG secondary antibody (Santa Cruz Biotechnology) (1:3000). Blots were saturated with Western-Lightning Plus ECL (Perkin-Elmer) before exposure to and developing of GeneMate auto-radiographic film (VWR).

## OC[C@@H](O)[C@@H](O)[C@@H](O)CO [ribitol]
5% ribitol, 6 months
  Functionality of glycosylated α-DG by laminin overlay assay: supported by laminin overlay assay
5% ribitol, cardiac muscle
  F-α-DG by IIH6C4 western blot, % of normal (C57) levels: up to 14%
5% ribitol, diaphragm
  F-α-DG by IIH6C4 western blot, % of normal (C57) levels: ≤ 17%
10% ribitol from pregnancy to 19 weeks
  Functionality of glycosylated α-DG by laminin overlay assay: supported by laminin overlay assay
10% ribitol from pregnancy to 19 weeks, diaphragm
  F-α-DG by IIH6C4 western blot, % of normal levels: 18%
10% ribitol from pregnancy to 19 weeks, heart
  F-α-DG by IIH6C4 western blot, % of normal levels: 14%
10% ribitol from pregnancy to 19 weeks, limb muscle
  F-α-DG by IIH6C4 western blot, % of normal levels: 26%

Source: patent US20200061092A1, “METHODS AND COMPOSITIONS FOR TREATING DISORDERS ASSOCIATED WITH MUSCLE WEAKNESS” (priority 2018, published 2020)
